Source: publication PMC8410599, “The structural basis of odorant recognition in insect olfactory receptors” (Nature, 2021)
pEC50: −log10 of the molar value. Where two headings read alike, the source gives them in different places.

How the values were obtained:
Orco [1] = molecular target: T1, Orco (Apocrypta bakeri, UniProt B0FAQ4); assay: cell-based; parameters: species or system HEK293; GCaMP6s calcium fluorescence dose-response of olfactory receptor channel expressed in HEK293 cells
T1 construct: gene Or2; expressed in HEK293 cells with GCaMP6s; homotetramer
T1 sequence (B0FAQ4 1-474): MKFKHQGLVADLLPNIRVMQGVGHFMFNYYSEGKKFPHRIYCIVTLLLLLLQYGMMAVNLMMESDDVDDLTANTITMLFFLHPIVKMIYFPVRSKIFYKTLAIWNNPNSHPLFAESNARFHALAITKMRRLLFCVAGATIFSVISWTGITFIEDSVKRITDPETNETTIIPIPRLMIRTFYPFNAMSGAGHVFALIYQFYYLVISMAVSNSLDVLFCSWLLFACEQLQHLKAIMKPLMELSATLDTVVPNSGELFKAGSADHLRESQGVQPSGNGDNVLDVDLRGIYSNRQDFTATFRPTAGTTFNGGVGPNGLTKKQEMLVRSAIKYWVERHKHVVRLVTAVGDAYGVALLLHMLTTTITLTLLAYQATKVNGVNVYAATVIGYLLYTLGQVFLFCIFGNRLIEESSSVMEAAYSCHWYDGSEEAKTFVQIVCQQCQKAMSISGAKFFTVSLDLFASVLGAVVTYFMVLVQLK
Procedure: (§1) Seven ligand concentrations were used for each transfection condition in sequential dilutions of 3, alongside a control well of only reading buffer. Ligands were dissolved in DMSO to 150 mM, then diluted with reading buffer to a highest final-well concentration of 0.5 mM (DMSO never exceeded 0.5%). Water-soluble ligands (arabinose, caffeine, denatonium, glucose, MSG, sucrose) were dissolved directly into reading buffer. If experimental data indicated a more sensitive response than this range, the concentration was adjusted accordingly. Ligand concentrations for mutants were the same as for the corresponding wild-type OR. Each plate contained a negative control of GCaMP6s transfected alone and exposed to eugenol for MhOR5 and VUAA1 for Orco experiments. […] A control of DMSO alone was also tested to ensure no activity effects were due to the solvent. Each concentration of ligand was applied to four technical replicates, which were averaged and considered a single biological replicate. The baseline fluorescence (F) was calculated as the average fluorescence of the 30 s before odour was added to the plate. Within each well, ΔF was calculated as the difference between the average of the last 10 s of fluorescence and the baseline F. ΔF/F was then calculated as the ΔF divided by the baseline fluorescence (F). […]

Orco [2] = molecular target: T1, Orco; assay: cell-based; parameters: species or system HEK293; GCaMP6s calcium fluorescence (ΔF/F) dose-response in HEK cells expressing the odorant receptor
Procedure: as §1

MhOR5 = molecular target: T2, MhOR5 (Machilis hrabei, UniProt Z9G0B3H7M0); assay: GCaMP6s calcium flux, HEK293; type: cell-based; details: agonist, sub-maximal efficacy; 2 mM CaCl2, pH 7.4
T2 construct: Lys2-Pro474; cryo-EM: N-terminal Strep II-sfGFP cleaved with HRV 3C, HEK293S GnTI-; calcium assay: pME18s vector without fluorescent marker, HEK293 with GCaMP6s; homotetramer
T2 sequence (Z9G0B3H7M0 6-478): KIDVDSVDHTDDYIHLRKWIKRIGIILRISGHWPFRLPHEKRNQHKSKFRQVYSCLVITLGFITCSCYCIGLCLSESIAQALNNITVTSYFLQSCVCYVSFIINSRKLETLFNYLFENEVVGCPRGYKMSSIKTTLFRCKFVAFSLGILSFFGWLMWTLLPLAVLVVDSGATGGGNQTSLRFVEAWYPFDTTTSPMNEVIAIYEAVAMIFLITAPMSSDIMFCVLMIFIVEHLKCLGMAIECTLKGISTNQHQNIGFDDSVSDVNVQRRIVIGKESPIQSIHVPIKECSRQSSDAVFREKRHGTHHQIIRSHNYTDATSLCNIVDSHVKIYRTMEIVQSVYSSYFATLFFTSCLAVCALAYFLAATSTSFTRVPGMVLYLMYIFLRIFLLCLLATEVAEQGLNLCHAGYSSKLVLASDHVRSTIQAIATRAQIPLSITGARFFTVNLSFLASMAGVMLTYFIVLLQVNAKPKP

Compound CCc1ccc(NC(=O)CSc2nnc(-c3cccnc3)n2CC)cc1 [VUAA1] has a pEC50 (Orco [1]) of 4.26.
For CC(=O)c1ccccc1 [acetophenone], the pEC50 (Orco [2]) was < 3.30.
CCN(CC)C(=O)c1cccc(C)c1 [DEET] was tested, and the EC50 (MhOR5) was “MhOR5 was also activated by the insect repellent DEET”.
